These results are taken from paper PMC12649290 (Journal of Clinical Pharmacology, 2025).

Data set [1] in a line: Population pharmacokinetic (popPK) model developed on OSIBOOST trial plasma concentrations (NONMEM). As to conditions: for CL/F, Population Estimate (RSE%) / V/F, Population Estimate (RSE%): allometrically scaled on bodyweight of 70 kg; for CL/F, Population Estimate (RSE%): exponent 0.75; for V/F, Population Estimate (RSE%): exponent 1; for CL/F, Bootstrap Median / V/F, Bootstrap Median: non-parametric bootstrap n = 1000. Type of data set: in vivo, human. How it is done: The data used in this study were obtained from the OSIBOOST clinical trial (NCT03858491).[15] The trial was approved by an independent medical ethics committee (METC19‐013) and was conducted in accordance with the 1964 Helsinki declaration (and its amendments). All patients provided written informed consent. Patients were included from one academic medical center and a specialized tertiary referral center in the Netherlands (the Maastricht University Medical Centre and the Antoni van Leeuwenhoek hospital). […] After 21 days of concomitant treatment with cobicistat (to reach steady state), PK samples (pre‐dose, 0.5‐1.5 h, 2.5‐3.5 h, 7‐8 h) of the concomitant therapy were collected.
PK data were analyzed with NONMEM version 7.4.4, Perl‐speaks‐NONMEM (PsN) version 5.4.0, R version 4.4.2, and Rstudio version 2024.09.0. The packages xpose, tidyvpc, mrgsolve, and ggplot2 in R were used for plotting and simulations.
A base popPK model was developed with the data from osimertinib monotherapy, using the first‐order conditional estimation method with interaction (FOCE‐I). […] Parameter changes were tested with stepwise inclusion and backward elimination. A decrease of more than −3.84 ΔOFV (P < .05) was considered a significant improvement when a single parameter was added to nested models. For backward elimination, a stricter criterion of 6.63 ΔOFV (P < .01) was used when removing a parameter from the popPK model.[25] One‐compartment and two‐compartment models were tested to best describe the data. Exponential between subject variability (BSV) on the popPK parameters was explored in a step‐wise approach. Residual error was tested as an additional, proportional, and a combined error model.
Developed popPK models were evaluated based on successful minimization, change in objective function value (ΔOFV), numerical diagnostics, standard goodness of fit (GOF) plots, and conditional weighted residuals (CWRES) plots. The performance of the developed popPK models was assessed with prediction‐corrected visual predictive check (pcVPC) and normalized prediction distribution error (NPDE) plots.[27] For the final popPK model, the median parameter estimate and 95% confidence interval (CI) were obtained non‐parametric bootstrap procedure (n = 1000) and can be considered as an internal validation.[28], [29] Relative standard errors (RSE%) of estimated parameters were acceptable when <30%.[30] A condition number was considered acceptable if […].[30] Both η‐shrinkage and ε‐shrinkage were considered appropriate if <30%.[31]

For data set [2] the following is noted: cited from earlier work.
The conditions of data set [3]: cited from earlier work. This is another data set of the same source.

Turning to `C=CC(=O)Nc1cc(Nc2nccc(-c3c[nH]c4ccccc34)n2)c(OC)cc1N(C)CCN(C)C` [AZ5104], in data set [1], the “CL/F, Population Estimate (RSE%)” value is given as 47.3 (7.8%) L/h; the “V/F, Population Estimate (RSE%)” value is reported as 184 (48.5%) L; the “CL/F, Bootstrap Median” value is listed as 46.3 L/h; the “V/F, Bootstrap Median” value is reported as 181 L.
On to `C=CC(=O)Nc1cc(Nc2nccc(-c3cn(C)c4ccccc34)n2)c(OC)cc1N(C)CCN(C)C` [osimertinib], for which, in data set [1], the “CL/F, Population Estimate (RSE%)” value was 19.0 (8.5%) L/h; the “V/F, Population Estimate (RSE%)” value is listed as 990 (29%) L; the “CL/F, Bootstrap Median” value worked out at 19.0 L/h; the “V/F, Bootstrap Median” value came out at 966 L. Moreover, in data set [1] (in vivo), the “Coefficient of variation (CV%) of the BSV on CL/F” value was 21.5%.
Regarding `CC(C)c1nc(CN(C)C(=O)N[C@@H](CCN2CCOCC2)C(=O)N[C@H](CC[C@H](Cc2ccccc2)NC(=O)OCc2cncs2)Cc2ccccc2)cs1` [cobicistat], the “Increase of osimertinib exposure (mean AUC0‐24h) by cobicistat” value in data set [2] (11 patients with Cmin,SS ≤ 195 µg/L, noncompartmental analysis) is 50%. Moreover, the “Adverse events of cobicistat boosted osimertinib” value in data set [2] (11 patients with low osimertinib exposure) is “without any grade ≥3 adverse events (AEs) or new safety signals”.
On to `CCC(C)n1ncn(-c2ccc(N3CCN(c4ccc(OCC5COC(Cn6cncn6)(c6ccc(Cl)cc6Cl)O5)cc4)CC3)cc2)c1=O` (stereo not drawn) [itraconazole], for which the “Increase in osimertinib exposure when combined with itraconazole” value in data set [3] is listed as 24%.
